Results published in article PMC9468151, “Identification of a binding site on soluble RANKL that can be targeted to inhibit soluble RANK-RANKL interactions and treat osteoporosis” (Nature Communications, 2022).
“And” between values parts separate entries of the source, which are not always exact repeats. Equal entries are not always repeated.

Key:
sRANKL = target: T1, sRANKL (Rattus norvegicus, UniProt Q9ESE2, D175N); assay: Isothermal titration calorimetry (ITC) with sRANKL; format: binding; details: for Kd: 25 °C, PBS 0.8% DMSO
T1 construct: (1) sRANKL (rat 159-318 aa); His6-sumo (N, cleaved yes); made in house; host or cells: Escherichia coli BL21 (DE3)
T1 sequence (Q9ESE2 159-318 D175N): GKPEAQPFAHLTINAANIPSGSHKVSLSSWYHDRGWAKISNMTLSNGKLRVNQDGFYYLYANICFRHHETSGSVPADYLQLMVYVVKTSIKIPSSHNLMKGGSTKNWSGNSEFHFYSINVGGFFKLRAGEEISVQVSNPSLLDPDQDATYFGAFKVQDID
Description: ITC titrations were performed on the MicroCal iTC200 system at 25 °C[55]. Working stocks of compound S3-15 were prepared in 100% DMSO at 50 mM and then diluted to 500 μM at PBS with final DMSO concentration at 0.8% (v/v). PBS with 0.8% DMSO was used as ITC buffer. Purified sRANKL or L-RANKL protein was buffer exchanged into same ITC buffer using a Millipore spin column. S3-15 at 500 μM was loaded into a syringe and protein was loaded into an isothermal calorimeter cell. During titration, S3-15 in the […] was injected (2 μL per injection, 25 injections in total, and 180 s between each injection) regularly from a rotating syringe into protein solution in the isothermal calorimeter cell. The sample cell was stirred at 385 rpm. Reference cell power was set to 5 μcal/s. Control experiments were conducted under the same conditions using buffer solution instead of S3-15. Data were analyzed using a one-site binding model in Origin 7.1 software for ITC version 7.0 (MicroCal). The dissociation constant, KD, was calculated according to equation KD = 1/K. All other parameters, K ([…]), N (varying the stoichiometry), ΔH (enthalpy of the reaction), and ΔG ([…] of the reaction) were determined from the titration data.

[1] = Pharmacokinetic studies in rat; format: in vivo; set-up: unit not given here
sRANKL trimerization = target: T2, sRANKL trimerization (Rattus norvegicus, UniProt Q9ESE2, D175N); assay: Cross-link assay of sRANKL trimerization; format: biochemical
T2 construct: (1) sRANKL (rat 159-318 aa); His6-sumo (N, cleaved yes); made in house; host or cells: Escherichia coli BL21 (DE3)
Source text: the effect of S3-15 on RANKL self-trimerization. […]
control), S3 and S3-15 -treated sRANKL samples. The sRANKL dimer and monomer […]
trimerization process in vitro. […]
line 18 and, Figure S4L of the manuscript. […]
convinced that our sRANKL selective inhibitors does attenuate RANKL-RANK interaction without affect RANKL trimerization.”.
3. Does S3-15 affect the binding of sRANKL and mRANKL to OPG, an important
Response: To answer this question, we have performed a number of experiments. The pull-down assay was conducted to explore the effects of S3-15 on sRANKL and OPG […]
sRANKL to OPG at high concentration (10 and 1 μM) but not low concentration (0.3 μM). Three more experiments on mRANKLs have conducted to study if S3-15 affects the binding of mRANKL to OPG. Two of the experiments are on human and mouse mRANKL expressed in 293T cell, the other is on the mRANKL expressed in MC3T3-E1 osteogenic precursor cells. […]
affect the binding of mRANKL to OPG at concentration of 1 μM. […]
been documented in the page 11 at line 21 and Figure S4M-S4P of the manuscript.
Here is the paragraph we have added to the manuscript: […]

OVX mice = assay: Osteoporosis therapeutic study in OVX mice (micro-CT); format: in vivo, mouse; details: S3-15 10 mg/kg/day 4 weeks, individual animals
Description: Female SD rats or C57BL/6 mice were cared until they grown up to 6 months old or 10 weeks old, respectively. Then we subjected them to either bilateral ovariectomy or sham operation after anesthesia with 10% chloral hydrate (0.3 mL/100 g). Then all the rats or mice were intramuscular injected of penicillin to prevent infection in the first week of surgery. For rat experiments, after 12 weeks of operation, 3 rats from sham-operated or ovariectomized groups were random selected to determine bone mass by micro-CT imaging biopsy to verify successful produced bone loss(data unshown). Then the OVX rats were individually administrated with S3-15, S3, and S3-05 orally with (10 mg/kg/day) for another 12 weeks. For mouse experiments, after 4 weeks of surgery, the OVX mice were treated with 10 mg/kg/day S3-15 for another 4 weeks.
The weight of rats or mice were recorded every week in the treatment period. After treatment, the rats were harvested, the serum, heart, liver, spleen, lung, kidney, thymus, and femurs were all collected and subjected to subsequent analysis. The right femurs of rats or mice were cleaned excess soft tissue, fixed in 10% formalin, and processed them for microcomputed tomography (micro-CT) analysis. Left mice femurs were collected and excarnate for biomechanical strength testing. Mice peripheral blood were as well as collected for flow cytometry analyzing.
The right femurs of rats or mice were further analyzed with micro-CT on Inveon PET/CT (Siemens, Germany). We used micro-CT to scan the femur from the femoral head to the femoral condyle, using 19 μm resolution, 80 kV 500uA, 360 projection, 3000-6000 image threshold, full rotation cone beam. Three-dimensional reconstruction and histomorphometric analyses of trabecular bone were conducted with the IAW (Inveon analysis workstation) analysis software. […] Trabecular bone parameters were measured including bone volume/tissue volume (BV/TV), bone surface area/bone volume (BS/BV), trabecular number (Tb.N), trabecular thickness (Tb.Th), trabecular separation(Tb.Sp) and trabecular pattern factor(Tb.P.F).

[2] = system: mRANKL induced osteoclastogenesis; assay: mRANKL induced osteoclastogenesis assay; format: cell-based, mouse; details: for OC inhibitory ratio, mRANKL induced (fig. 3d IC50 curve data): replicates

Compound | Kd (sRANKL) | plasma concentration-time (fig. S2c) ([1]; time 28 h) | plasma concentration-time (fig. S2c) ([1]; time 36 h) | effect on trimerization of sRANKL (sRANKL trimerization) | SI (sRANKL over binary-RANKL) (sRANKL; ratio of ITC KD) | BV/TV (OVX mice) | Tb.N (OVX mice) | Tb.Th (OVX mice) | OC inhibitory ratio, mRANKL induced (fig. 3d IC50 curve data) ([2]; 0.0023464 μM) | OC inhibitory ratio, mRANKL induced (fig. 3d IC50 curve data) ([2]; 0.00774313 μM) | OC inhibitory ratio, mRANKL induced (fig. 3d IC50 curve data) ([2]; 0.0255523 μM) | OC inhibitory ratio, mRANKL induced (fig. 3d IC50 curve data) ([2]; 0.0843226 μM) | OC inhibitory ratio, mRANKL induced (fig. 3d IC50 curve data) ([2]; 0.278265 μM) | OC inhibitory ratio, mRANKL induced (fig. 3d IC50 curve data) ([2]; 0.918274 μM) | OC inhibitory ratio, mRANKL induced (fig. 3d IC50 curve data) ([2]; 3.0303 μM) | OC inhibitory ratio, mRANKL induced (fig. 3d IC50 curve data) ([2]; 10 μM) | OC inhibitory ratio, mRANKL induced (fig. 3d IC50 curve data) ([2]; 33 μM) | IC50 ([2]; Mus musculus, +mRANKL)
CCOC(=O)c1sc(NC(=O)/C(=N/Nc2ccc(O)cc2C(=O)O)C(C)=O)nc1C [S3-05] | 6.58 µM | 0.0028 and 0.0125 and 0.0083 | 0.0011 and 0.0231 and 0.0066 |  |  |  |  |  |  |  |  |  |  |  |  |  |  | 
CCOC(=O)c1sc(NC(=O)/C(=N/Nc2ccccc2C(=O)O)C(C)=O)nc1C [S3, (E)-2-(2-(1-((5-(ethoxycarbonyl)-4-methylthiazol-2-yl)amino)-1,3-dioxobutan-2-ylidene) hydrazinyl) benzoic acid] |  | 0.7405 and 0.07032 and 0.1222 | 0.6382 and 0.07762 and 0.02166 | cannot affect |  |  |  |  |  |  |  |  |  |  |  |  |  | 
CC(=O)/C(=N\Nc1ccccc1C(=O)O)C(=O)Nc1ccccn1 [S3-15] | 5.78 µM |  |  | cannot affect the trimerization of sRANKL | 21 | 0.134 and 0.2459 and 0.2549 and 0.1314 and 0.1319 and 0.1667 and 0.09144 and 0.215 | 3.01 1/mm and 5.848 1/mm and 5.596 1/mm and 2.742 1/mm and 2.832 1/mm and 3.86 1/mm and 1.833 1/mm and 4.649 1/mm | 0.0445 mm and 0.04205 mm and 0.04556 mm and 0.04792 mm and 0.04659 mm and 0.04318 mm and 0.04987 mm and 0.04624 mm | -1.8319 and -1.185 and 3.987 | -0.2155 and 3.341 and 0.431 | 1.724 and 9.483 and -1.8319 | 10.4526 and 18.2112 and 10.1293 | 19.8276 and 9.806 and 12.7155 | 19.8276 and 9.806 and 12.7155 | 46.6595 (2×) and 50.5388 | 62.8233 (2×) and 61.5302 | 90.3017 and 88.3621 and 89.6552 | 4.14 µM
